Data reported in article PMC5967867, “An NMDAR positive and negative allosteric modulator series share a binding site and are interconverted by methyl groups” (eLife, 2018).
Like-named read-outs stand apart in the source and are kept apart here. Marks after values point to notes of the source that are not given here.

Assays:
GluN1/GluN2D NMDARs = GluN1/GluN2D NMDARs (Rattus norvegicus, UniProt P35439+Q62645); experiment: Two-electrode voltage-clamp recordings, Xenopus laevis oocytes expressing GluN1/GluN2D; format: cell-based; conditions: for Emax: read-out: Maximal Degree of Modulation (% of control)
Protocol: cDNAs for rat wild type NMDAR subunits GluN1-1a (GenBank U11418, U08261; hereafter GluN1 or GluN1a), GluN1-1b (U08263, hereafter GluN1b), GluN2A (D13211), GluN2B (U11419), Glu[…]), and Glu[…], modified as described in [Monyer et al., 1994]) were provided by Drs. S. Heinemann (Salk Institute), S. Nakanishi (Kyoto University), and P. Seeburg (University of Heidelberg). Site-directed mutagenesis was conducted using the QuikChange kit (Agilent Technologies, Santa Clara, CA) following the recommended protocol. DNA sequencing was used to verify all mutations. The amino acid numbering system started with the initiating methionine as residue number one. For expression in Xenopus laevis oocytes, cDNA constructs were linearized by restriction enzymes, and subsequently used to synthesize in vitro cRNAs following the manufacturer's protocol (mMessage mMachine, Ambion, ThermoFisher Scientific, Waltham, MA). […] All extracellular solutions were made from a solution containing (in mM) 90 NaCl, 1 KCl, 10 HEPES, 0.5 BaCl2, 0.01 EDTA (pH 7.4 with NaOH). Experiments were performed using an eight port Modular Valve Positioner (Hamilton Company, Reno, NV) and controlled by custom software (Easy Oocyte, Emory University, Atlanta, GA)to exchange solutions. Oocyte currents were recorded at a holding potential of -40 mV using a two-electrode voltage-clamp amplifier (OC-725B or OC-725C, Warner Instruments, Hamden, CT). […] Measurements are given as mean ± SEM unless otherwise indicated. […] EC50 and IC50 values and confidence intervals reported were calculated by averaging the log(EC50) or log(IC50) value, determining confidence intervals for mean log(EC50) or log(IC50), and converting back to units of molarity. Statistical significance evaluations (α set to 0.05) were performed using a one-way ANOVA with Dunnett's multiple comparison test, a paired t-test, or other appropriate tests as described.

NMDARs = experiment: Whole-cell recordings of modulation at +40 mV and -60 mV (voltage dependence); format: cell-based, rat; conditions: 10 µM test compound
Protocol: Figure 4. The association and dissociation time course of EU1794-2, EU1794-4 and EU1794-27 differ at GluN1/GluN2A and GluN1/GluN2D. (A) Representative whole-cell current recordings of GluN1/GluN2D NMDARs exemplifying the modulation time course of EU1794-2, EU1794-4 and EU1794-27 (1, 3, 10 µM). […] Insets show the steady state modulation extent from the HEK cell experiments fit by the Hill equation (Hill slope fixed to 1). (B) Analysis of the time course for the onset of PAM and NAM action as a function of concentrations for EU1794-2 (left), EU1794-4 (left) and EU1794-27 (right) used to determine the association rate kON (black circles) and dissociation rate kOFF (grey squares), from which we can calculate Kd for each modulator. Data are from at least 3 cells for each concentration of modulator. For EU1794-27 the association and dissociation rate linear component was also found to be concentration dependent (mon = −0.98 pA/(ms*µM), moff = 0.62 pA/(ms*µM)). (C,D) Similar set of panels as A,B but examining EU1794-2, EU1794-4 and EU1794-27 modulation of GluN1/GluN2A. In example recordings, all modulator concentrations are 10 µM. Data are from at least 3 cells for each concentration of modulator. For EU1794-27 time-course was fitted with the sum of an exponential and linear function, and both the time constant and slope were concentration dependent (mon = −0.33 pA/(s*µM), moff = 0.16 pA/(s*µM)). Figure 4—figure supplement 1. The actions of EU1794 modulators are voltage-independent and are influenced by the desensitization level. (A–C) A representative current response of EU1794-2 (A, the ratio of the % modulation by EU1794-2 at +40 mV and −60 mV was 1.1 ± 0.27, n = 3), EU1794-4 (B, the ratio of modulation at +40 mV and −60 mV was 0.88 ± 0.06, n = 6) and EU1794-27 (C, the ratio of modulation at +40 mV and −60 mV was 0.99 ± 0.15, n = 3) modulation with the Vm held at +40 mV and −60 mV; all responses shown were using 10 µM of test compound. […]

[1] = glutamate/glycine 100/30 µM, no second modulator (+EU1794-27 0 µM), read-out: IC50 (µM) [conf. int.]
[2] = saturating glutamate/glycine 100/30 µM, mean [95% CI], read-out: EC50 (µM) [conf. int.]
[3] = saturating glutamate/glycine 100/30 µM, mean ± SEM
[4] = sub-saturating glutamate/glycine 0.6/0.2 µM, read-out: EC50 (µM) [conf. int.]
[5] = sub-saturating glutamate/glycine 0.6/0.2 µM

Sequence of GluN1/GluN2D NMDARs (Q62645 28-1323, other chains not shown): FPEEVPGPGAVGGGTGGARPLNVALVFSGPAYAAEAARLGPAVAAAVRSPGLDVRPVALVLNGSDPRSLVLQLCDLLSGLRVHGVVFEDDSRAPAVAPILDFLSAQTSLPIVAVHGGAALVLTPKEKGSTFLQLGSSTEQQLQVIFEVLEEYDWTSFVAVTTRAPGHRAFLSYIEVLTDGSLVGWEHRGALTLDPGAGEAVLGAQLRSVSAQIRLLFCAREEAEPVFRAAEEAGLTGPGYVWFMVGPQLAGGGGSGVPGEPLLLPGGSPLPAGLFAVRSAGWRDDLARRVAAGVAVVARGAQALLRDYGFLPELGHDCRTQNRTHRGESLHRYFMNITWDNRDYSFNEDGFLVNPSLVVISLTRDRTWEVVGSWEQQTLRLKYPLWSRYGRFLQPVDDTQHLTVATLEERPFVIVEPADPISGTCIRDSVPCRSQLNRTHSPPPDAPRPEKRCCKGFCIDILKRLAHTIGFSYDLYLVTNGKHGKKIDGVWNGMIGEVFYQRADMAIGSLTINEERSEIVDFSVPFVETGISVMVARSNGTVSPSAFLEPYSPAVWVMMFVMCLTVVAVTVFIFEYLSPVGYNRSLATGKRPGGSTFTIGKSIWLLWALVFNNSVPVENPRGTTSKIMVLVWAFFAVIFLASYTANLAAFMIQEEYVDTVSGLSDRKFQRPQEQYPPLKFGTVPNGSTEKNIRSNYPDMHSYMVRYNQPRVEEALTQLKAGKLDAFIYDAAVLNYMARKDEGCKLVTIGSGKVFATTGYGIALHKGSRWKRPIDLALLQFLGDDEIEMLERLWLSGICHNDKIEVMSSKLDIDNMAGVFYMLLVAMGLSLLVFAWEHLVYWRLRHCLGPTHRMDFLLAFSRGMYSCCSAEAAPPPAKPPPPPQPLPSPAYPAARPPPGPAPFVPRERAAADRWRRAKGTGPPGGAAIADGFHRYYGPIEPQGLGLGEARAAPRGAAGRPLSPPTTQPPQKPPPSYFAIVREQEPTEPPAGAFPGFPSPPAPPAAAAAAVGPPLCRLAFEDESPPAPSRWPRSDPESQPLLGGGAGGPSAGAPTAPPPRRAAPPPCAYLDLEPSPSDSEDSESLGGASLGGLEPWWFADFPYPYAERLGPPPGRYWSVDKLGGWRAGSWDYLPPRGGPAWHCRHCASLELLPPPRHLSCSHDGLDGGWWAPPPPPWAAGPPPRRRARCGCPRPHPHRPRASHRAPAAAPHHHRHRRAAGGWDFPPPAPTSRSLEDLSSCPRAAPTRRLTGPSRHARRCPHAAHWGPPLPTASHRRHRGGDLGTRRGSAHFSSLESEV

Structure (SMILES)	IC50 (GluN1/GluN2D NMDARs; +EU1794-27 3 µM, glutamate/glycine 100/30 µM, read-out: EU1794-2 IC50 (µM) [conf. int.]) [µM]	IC50 (GluN1/GluN2D NMDARs; +EU1794-27 10 µM, glutamate/glycine 100/30 µM, read-out: EU1794-2 IC50 (µM) [conf. int.]) [µM]	IC50 (GluN1/GluN2D NMDARs; +EU1794-27 20 µM, glutamate/glycine 100/30 µM, read-out: EU1794-2 IC50 (µM) [conf. int.]) [µM]	IC50 (GluN1/GluN2D NMDARs; [1]) [µM]	EC50 (GluN1/GluN2D NMDARs; [2]) [µM]	Emax (GluN1/GluN2D NMDARs; [3]) [%]	EC50 (GluN1/GluN2D NMDARs; [4]) [µM]	Emax (GluN1/GluN2D NMDARs; [5]) [%]	ratio of the % modulation at +40 mV and −60 mV (NMDARs)	Fold Difference (glutamate EC50) (GluN1/GluN2D NMDARs; control vs 10 µM EU1794-4)	Fold Difference (glycine EC50) (GluN1/GluN2D NMDARs; control vs 10 µM EU1794-4)	EC50 (GluN1/GluN2D NMDARs; sub-saturating glutamate/glycine 0.3/0.09 µM, read-out: EC50 (µM) [conf. int.]) [µM]	Emax (GluN1/GluN2D NMDARs; sub-saturating glutamate/glycine 0.3/0.09 µM) [%]	EC50 (GluN1/GluN2D NMDARs; +EU1794-2 1 µM, glutamate/glycine 100/30 µM, read-out: EU1794-27 EC50 (µM) [conf. int.]) [µM]	EC50 (GluN1/GluN2D NMDARs; +EU1794-2 3 µM, glutamate/glycine 100/30 µM, read-out: EU1794-27 EC50 (µM) [conf. int.]) [µM]	Fold Difference (glutamate EC50) (GluN1/GluN2D NMDARs; control vs 10 µM EU1794-27)	Fold Difference (glycine EC50) (GluN1/GluN2D NMDARs; control vs 10 µM EU1794-27)
CCOC(=O)c1c(NC(=O)CC2SC(=N)NC2=O)sc2c1CCC(C)C2 (centres unmarked) [EU1794-2, ethyl 2-(2-(2-imino-4-oxothiazolidin-5-yl)acetamido)-6-methyl-4,5,6,7-tetrahydrobenzo[b]thiophene-3-carboxylate]	1.4	2.7	7.3	0.2	0.2	14	0.32	24	1.1 ± 0.27	–	–	–	–	–	–	–	–
CCOC(=O)c1c(NC(=O)CC2SC(=N)NC2=O)sc2c1CCCC2 (centres unmarked) [EU1794-4, ethyl 2-(2-(2-imino-4-oxothiazolidin-5-yl)acetamido)-4,5,6,7-tetrahydrobenzo[b]thiophene-3-carboxylate]	–	–	–	0.36	0.36	51	–	–	0.88 ± 0.06	3.9^†	8.9^†	14	540	–	–	–	–
CC(C)(C)OC(=O)c1c(NC(=O)CC2SC(=N)NC2=O)sc2c1CCCC2 (centres unmarked) [EU1794-27, tert-butyl 2-(2-(2-imino-4-oxothiazolidin-5-yl)acetamido)-4,5,6,7-tetrahydrobenzo[b]thiophene-3-carboxylate]	–	–	–	–	2.4	250	8.3	580	0.99 ± 0.15	–	–	–	–	7.5	7.8	5.3^†	4.9^†
